In US20220031680A1, “Donecopride As Neuroprotective Agent In the Treatment of Neurodegenerative Diseases” (priority 2018, published 2022):
Marks after values point to notes of the source that are not given here.

Test system: rat primary hippocampal neurons injured with Aβ 1-42
Experiment: Number of synapses (PSD95/SYN overlap) in primary hippocampal neurons injured with Aβ1-42
Assay type: cell-based
Settings: for Number of synapses (% of control): Aβ 1-42 (20 μM) in Table 5, 24 h; for number of synapses normalized by the number of neurons (formation of new synapses): Aβ 1-42 injured hippocampal neurons
Procedure: The hippocampal neurons were exposed with Aβ solutions (see below) after 17 days of culture. The Aβ1-42 preparation was done following the procedure described by Callizot et al. (2013) J. Neurosci. Res. 91706-716. Briefly, Aβ1-42 peptide was dissolved in the defined culture medium mentioned above, at an initial concentration of 40 μM. This solution was gently agitated for 3 days at 37° C. in the dark and immediately used after being properly diluted in culture medium to the concentrations used (20 μM (plate 1) or 2.5 μM (plate 2) corresponding to 2 μM or 0.25 μM of oligomers (AβO) respectively).
Donecopride fumarate was solved in culture medium and preincubated 1 h before Aβ application. Aβ1-42 preparation was added to a final concentration of 20 or 2.5 μM (=2 μM or 0.25 μM of AβO, evaluated by automatic Western Blot) diluted in control medium in presence of Donecopride.
24 hours after intoxication, the hippocampal neurons were fixed by a cold solution of ethanol (95%) and acetic acid (5%) for 5 min at −20° C. After permeabilization with 0.1% of saponin, cells were incubated for 2 h with:
a) mouse monoclonal antibody anti post synaptic density 95 kDa (PSD95) at a dilution of 1/100 in PBS containing 1% fetal calf serum and 0.1% of saponin.
b) Rabbit polyclonal antibody anti-synaptophysin (SYN) at the dilution of 1/100 in PBS containing 1% fetal calf serum and 0.1% of saponin.
For each condition, 40 pictures per well were taken using ImageXpress (Molecular Devices) with 40× magnification. All images were taken with the same acquisition parameters.
Synapses evaluation was performed automatically by using Custom module editor (Molecular Devices).
The following endpoints were assessed: • Total number of synapses (overlapping between PSD95/SYN).
To assess the formation of synapses, the distribution of PSD-95, a post-synaptic marker, and synaptophysin, a pre-synaptic marker, was studied. A structure positive for both PD-95 and synaptophysin staining was considered as a synapse.
Injury: The hippocampal neurons were exposed with Aβ solutions (see below) after 17 days of culture. The Aβ1-42 preparation was done following the procedure described by Callizot et al. (2013) J. Neurosci. Res. 91:706-716. The batch number of the Aβ1-42 used in this study contains 10% of oligomers (quantification by WB as performed in Combes et al. (2015) J. Neurosci. Res. 93:633-643). Briefly, Aβ1-42 peptide was dissolved in the defined culture medium mentioned above, at an initial concentration of 40 μmol/1. This solution was gently agitated for 3 days at 37° C. in the dark and immediately used after being properly diluted in culture medium to the concentrations used (20 μmol/l or 2.5 μmol/l corresponding to 2 μmol/l or 0.25 μmol/l of oligomers (AβO) respectively). Aβ1-42 preparation was added to a final concentration of 20 or 2.5 μmol/l (respectively 2 μmol/l or 0.25 μmol/l of AβO, determined by automatic WB) diluted in control medium in presence of the compounds.
Immunostaining: PSD95 and SYN—After fixation and permeabilization, cells were incubated for 2 hours with: • mouse monoclonal antibody anti post synaptic density 95 kDa (PSD95) at dilution of 1/200 in PBS containing 1% fetal calf serum and 0.1% saponin; • rabbit polyclonal antibody anti-synaptophysin (SYN) at the dilution of 1/100 in PBS containing 1% fetal calf serum and 0.1% saponin.
For each condition, 40 pictures per well were taken using ImageXpress (Molecular Devices) with 40× magnification. All images were taken with the same conditions. Synapses evaluation were performed automatically by using Custom Module Editor® (Molecular Devices). The following endpoints were assessed: • Number of synapses (overlapping between PSD95/SYN)

SMILES | concentration up to which the effect on synapses is significant (Aβ1-42 injured hippocampal neurons, Example 5 (FIG. 12)) | Number of synapses (% of control) (1 μM) | number of synapses normalized by the number of neurons (formation of new synapses) (Donepezil group (1 μM)) | Number of synapses (% of control) (1 nM) | Number of synapses (% of control) (5 nM) | Number of synapses (% of control) (10 nM) | Number of synapses (% of control) (50 nM) | Number of synapses (% of control) (100 nM) | Number of synapses (% of control) (500 nM) | number of synapses normalized by the number of neurons (formation of new synapses) (500 nM)
COc1cc(N)c(F)cc1C(=O)CCC1CCN(CC2CCCCCC2)CC1 [MR36014] | ≤ 50 µM | – | – | – | – | – | – | – | – | –
COc1cc2c(cc1OC)C(=O)C(CC1CCN(Cc3ccccc3)CC1)C2 (centres unmarked) [Donepezil, reference compound] | – | 88* % of control | no effect | – | – | – | – | – | – | –
COc1cc(N)c(Cl)cc1C(=O)CCC1CCN(CC2CCCCC2)CC1 [Donecopride] | – | 85* % of control | – | 69 % of control | 83* % of control | 87* % of control | 91* % of control | 93* % of control | 94* % of control | significantly promoted the formation of new synapses
